# Experimental data published in patent US20230087118A1, “IMIDAZO[1,2-a][sequence] DERIVATIVES AND THEIR USE IN THE TREATMENT OF DISEASE” (priority 2019, published 2023).
# Where a name gives a salt, the structure may show the parent alone.
# Target: T1, IRAK4 (Homo sapiens, UniProt Q9NWZ3)
# T1 sequence (Q9NWZ3 1-460): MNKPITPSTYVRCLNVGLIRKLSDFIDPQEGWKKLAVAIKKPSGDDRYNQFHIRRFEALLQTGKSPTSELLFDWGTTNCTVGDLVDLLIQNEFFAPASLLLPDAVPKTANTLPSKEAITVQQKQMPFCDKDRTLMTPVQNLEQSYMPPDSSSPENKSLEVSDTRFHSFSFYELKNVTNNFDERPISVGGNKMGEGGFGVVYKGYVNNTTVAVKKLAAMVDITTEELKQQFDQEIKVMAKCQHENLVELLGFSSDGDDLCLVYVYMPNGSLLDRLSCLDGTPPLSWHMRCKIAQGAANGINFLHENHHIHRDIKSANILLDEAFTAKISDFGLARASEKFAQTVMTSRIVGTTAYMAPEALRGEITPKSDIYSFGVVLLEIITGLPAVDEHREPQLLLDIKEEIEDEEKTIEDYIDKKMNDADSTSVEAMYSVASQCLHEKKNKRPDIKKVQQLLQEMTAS
# Assay: biochemical
# Details: not given
row,SMILES,IC50 [µM]
1,"COc1ccn2ncc(NC(=O)c3cn4cc(C56COC(C)(C5)C6)nc4cc3OC(C)C)c2n1 [Example 300, 7-Isopropoxy-N-(5-methoxypyrazolo[1,5-a]pyrimidin-3-yl)-2-(1-methyl-2-oxabicyclo[2.1.1]hexan-4-yl)imidazo[1,2-a]pyridine-6-carboxamide]",0.0022
2,"COc1cc2nc(C3CCOCC3)cn2cc1C(=O)Nc1cccc2ccnn12 [Example 57, 7-Methoxy-N-(pyrazolo[1,5-a]pyridin-7-yl)-2-(tetrahydro-2H-pyran-4-yl)imidazo[1,2-a]pyridine-6-carboxamide]",0.0041
3,"CC(C)Oc1nc2nc(C34COC(C)(C3)C4)cn2cc1C(=O)Nc1ccn2nccc2n1 [Example 372, 7-Isopropoxy-2-(1-methyl-2-oxabicyclo[2.1.1]hexan-4-yl)-N-(pyrazolo[1,5-a]pyrimidin-5-yl)imidazo[1,2-a]pyrimidine-6-carboxamide]",0.0576
4,COc1cc2nc(C3CCOCC3)cn2cc1C(=O)Nc1ccc(C)n(C)c1=O [Example 182],0.559
5,"CCOc1nc(C(=O)Nc2cc(F)cn(C)c2=O)cn2cc(C3CCCOC3)nc12 (stereo not shown) [Example 272, 8-Ethoxy-N-(5-fluoro-1-methyl-2-oxo-1,2-dihydropyridin-3-yl)-2-(tetrahydro-2H-pyran-3-yl)imidazo[1,2-a]pyrazine-6-carboxamide]",0.0098
6,"COCCCc1cn2cc(C(=O)Nc3cccc(C(F)F)n3)c(OC(C)C)cc2n1 [Example 102, N-(6-(difluoromethyl)pyridin-2-yl)-7-isopropoxy-2-(3-methoxypropyl)imidazo[1,2-a]pyridine-6-carboxamide]",0.0004
7,"CC(C)Oc1nc2nc(C34COC(C)(C3)C4)cn2cc1C(=O)Nc1cnc2cccnn12 [Example 373, N-(imidazo[1,2-b]pyridazin-3-yl)-7-isopropoxy-2-(1-methyl-2-oxabicyclo[2.1.1]hexan-4-yl)imidazo[1,2-a]pyrimidine-6-carboxamide]",0.0006
8,CC[C@@H](C)Oc1cc2nc(C34COC(C)(C3)C4)cn2cc1C(=O)Nc1cnn2cc(C)cnc12 [Example 560],0.0012
9,"CC12CCC(c3cn4cc(C(=O)Nc5ccn(CC6CC6)n5)c(OC5CCC5)cc4n3)(CO1)C2 (stereo not shown) [Example 534, 7-Cyclobutoxy-N-(1-(cyclopropylmethyl)-1H-pyrazol-3-yl)-2-(1-methyl-2-oxabicyclo[2.2.1]heptan-4-yl)imidazo[1,2-a]pyridine-6-carboxamide]",0.0135
10,"Cc1ccn2ncc(NC(=O)c3cn4cc(C56COC(C)(C5)C6)nc4nc3OC(C)C)c2n1 [Example 374, 7-Isopropoxy-2-(1-methyl-2-oxabicyclo[2.1.1]hexan-4-yl)-N-(5-methyl-pyrazolo[1,5-a]pyrimidin-3-yl)imidazo[1,2-a]pyrimidine-6-carboxamide]",0.0014
11,"CCOc1nc(C(=O)Nc2cccc(F)c2Cl)cn2cc(C34COC(C)(C3)C4)nc12 [Example 485, N-(2-chloro-3-fluorophenyl)-8-ethoxy-2-(1-methyl-2-oxabicyclo[2.1.1]hexan-4-yl)imidazo[1,2-a]pyrazine-6-carboxamide]",0.009
12,"CCn1cccc(NC(=O)c2cn3cc(C45CCC(C)(CC4)OC5)nc3cc2OC2CCC2)c1=O [Example 420, 7-Cyclobutoxy-N-(1-ethyl-2-oxo-1,2-dihydropyridin-3-yl)-2-(1-methyl-2-oxabicyclo[2.2.2]octan-4-yl)imidazo[1,2-a]pyridine-6-carboxamide]",0.0003
13,CC[C@H](C)Oc1cc2nc(C34COC(C)(C3)C4)cn2cc1C(=O)Nc1cnn2cc(C)cnc12 [Example 559],0.0007
14,"O=C(Nc1cccn(C(F)F)c1=O)c1cn2cc(C3CC3)nc2cc1OC1CCCC1 [Example 458, 7-(Cyclopentyloxy)-2-cyclopropyl-N-(1-(difluoromethyl)-2-oxo-1,2-dihydropyridin-3-yl)imidazo[1,2-a]pyridine-6-carboxamide]",0.0019
15,COc1ncccc1NC(=O)c1cn2cc(C34CCC(C3)OC4)nc2cc1OC(C)C (stereo not shown) [Example 249],0.0007
16,"CC(C)Oc1cc2nc(C34CCC(C)(C3)OC4)cn2cc1C(=O)Nc1cccc(F)c1F (stereo not shown) [Example 515, N-(2,3-difluorophenyl)-7-isopropoxy-2-(1-methyl-2-oxabicyclo[2.2.1]heptan-4-yl)imidazo[1,2-a]pyridine-6-carboxamide]",0.0014
17,"CCOc1nc(C(=O)Nc2cccnc2OC(F)F)cn2cc(C34COC(C)(C3)C4)nc12 [Example 492, N-(2-(difluoromethoxy)pyridin-3-yl)-8-ethoxy-2-(1-methyl-2-oxabicyclo[2.1.1]hexan-4-yl)imidazo[1,2-a]pyrazine-6-carboxamide]",0.0016
18,"CCOc1nc(C(=O)Nc2cccc(C(F)F)n2)cn2cc([C@@]34CC[C@@](C)(C3)OC4)nc12 (single isomer, unassigned) [Example 601]",0.0019
19,"CCOc1cccc(NC(=O)c2cn3cc(C4CC4)nc3cc2OC(C)C)n1 [Example 481, 2-Cyclopropyl-N-(6-ethoxypyridin-2-yl)-7-isopropoxyimidazo[1,2-a]pyridine-6-carboxamide]",0.0089
20,"Cn1ccc(NC(=O)c2cn3cc([C@]45CC[C@](C)(C4)OC5)nc3nc2OC2CCC2)n1 (single isomer, unassigned) [Example 648]",0.0045
21,"CC(C)Oc1cc2nc(C34COC(C)(C3)C4)c(F)n2cc1C(=O)Nc1cnn2cccnc12 [Example 328, 3-Fluoro-7-isopropoxy-2-(1-methyl-2-oxabicyclo[2.1.1]hexan-4-yl)-N-(pyrazolo[1,5-a]pyrimidin-3-yl)imidazo[1,2-a]pyridine-6-carboxamide]",0.006
22,"COc1ccc2ncc(NC(=O)c3cn4cc(C56COC(C)(C5)C6)nc4cc3OC(C)C)n2n1 [Example 301, 7-Isopropoxy-N-(6-methoxyimidazo[1,2-b]pyridazin-3-yl)-2-(1-methyl-2-oxabicyclo[2.1.1]hexan-4-yl)imidazo[1,2-a]pyridine-6-carboxamide]",0.0066
23,"CC12CC(c3cn4cc(C(=O)Nc5cccn(C(F)F)c5=O)c(OC5CCC5(C)C)cc4n3)(CO1)C2 (stereo not shown) [Example 439, N-(1-(difluoromethyl)-2-oxo-1,2-dihydropyridin-3-yl)-7-(2,2-dimethylcyclobutoxy)-2-(1-methyl-2-oxabicyclo[2.1.1]hexan-4-yl)imidazo[1,2-a]pyridine-6-carboxamide]",0.0028
24,"CC(C)Oc1c(C(=O)Nc2cccc(C(F)F)n2)cn2cc(C34COC(CF)(C3)C4)nc2c1F [Example 269, N-(6-(Difluoromethyl)pyridin-2-yl)-8-fluoro-2-(1-(fluoromethyl)-2-oxabicyclo[2.1.1]hexan-4-yl)-7-isopropoxyimidazo[1,2-a]pyridine-6-carboxamide]",0.0012
25,COc1cccc(NC(=O)c2cn3cc(C4CCOCC4)nc3cn2)n1 [Example 81],0.232
26,"CC(C)Oc1cc2nc([C@@]34CC[C@@H](C3)OC4)cn2cc1C(=O)Nc1cnn2cccnc12 (single isomer, unassigned) [Example 582]",0.0006

# Same assay, conditions: IRAK4 Biochemical Assay (1 mM ATP, 2 h) IC50 (μM), 1 mM ATP, 2 h, 100 pM IRAK4
row,SMILES,IC50 [µM]
1,"CC(C)Oc1cc2nc(C(C)(F)F)cn2cc1C(=O)Nc1cccc(C(F)F)n1 [Example 98, 2-(1,1-Difluoroethyl)-N-(6-(difluoromethyl)pyridin-2-yl)-7-isopropoxyimidazo[1,2-a]pyridine-6-carboxamide]",0.0038
2,"CC(C)Oc1nc2nc(C34COC(C)(C3)C4)cn2cc1C(=O)Nc1cccc2c1ncn2C [Example 379, 7-Isopropoxy-N-(1-methyl-1H-benzo[d]imidazol-4-yl)-2-(1-methyl-2-oxabicyclo[2.1.1]hexan-4-yl)imidazo[1,2-a]pyrimidine-6-carboxamide trifluoroacetate]",0.001
3,CC(C)Oc1nc2nc(C34COC(C)(C3)C4)cn2cc1C(=O)Nc1cccc(C(F)F)n1 [Example 218],0.0002
4,"CC(C)Oc1cc2nc(C34CCC(C)(CC3)OC4)cn2cc1C(=O)Nc1ccn(C)n1 [Example 571, 7-Isopropoxy-N-(1-methyl-1H-pyrazol-3-yl)-2-(1-methyl-2-oxabicyclo[2.2.2]octan-4-yl)imidazo[1,2-a]pyridine-6-carboxamide]",0.0017
5,"COc1ncccc1NC(=O)c1cn2cc(C34COC(C)(C3)C4)nc2cc1OC(F)F [Example 332, 7-(Difluoromethoxy)-N-(2-methoxypyridin-3-yl)-2-(1-methyl-2-oxabicyclo[2.1.1]hexan-4-yl)imidazo[1,2-a]pyridine-6-carboxamide trifluoroacetate]",0.0052
6,"CCOc1cc2nc(C3CCOCC3)cn2cc1C(=O)Nc1cccc(C2CCOC2)n1 (stereo not shown) [Example 391, 7-Ethoxy-2-(tetrahydro-2H-pyran-4-yl)-N-(6-(tetrahydrofuran-3-yl)pyridin-2-yl)imidazo[1,2-a]pyridine-6-carboxamide hydrochloride]",0.0034
7,"CC(C)Oc1nc2nc(C34COC(C)(C3)C4)cn2cc1C(=O)Nc1cccc(C2CCOC2)n1 (stereo not shown) [Example 359, 7-Isopropoxy-2-(1-methyl-2-oxabicyclo[2.1.1]hexan-4-yl)-N-(6-(tetrahydro-furan-3-yl)pyridin-2-yl)imidazo[1,2-a]pyrimidine-6-carboxamide trifluoroacetate]",0.0009
8,"CC(C)Oc1nc2nc(C3C4COCC43)cn2cc1C(=O)Nc1ccn(C)n1 (stereo not shown) [Example 396, 2-(3-Oxabicyclo[3.1.0]hexan-6-yl)-7-isopropoxy-N-(1-methyl-1H-pyrazol-3-yl)imidazo[1,2-a]pyrimidine-6-carboxamide formate]",0.0076
